{"source": "paper PMC3610872", "about": "“Full and Partial Agonists of Thromboxane Prostanoid Receptor Unveil Fine Tuning of Receptor Superactive Conformation and G Protein Activation” (PLoS ONE, 2013)", "assay_type_in_all_cases": "cell-based", "key": {"WT human TP receptor [1]": {"target": "T1, WT human TP receptor (Homo sapiens, UniProt P21731)", "T1 construct": "expressed in transfected cells; host or cells: HEK293", "T1 sequence (P21731 1-343)": "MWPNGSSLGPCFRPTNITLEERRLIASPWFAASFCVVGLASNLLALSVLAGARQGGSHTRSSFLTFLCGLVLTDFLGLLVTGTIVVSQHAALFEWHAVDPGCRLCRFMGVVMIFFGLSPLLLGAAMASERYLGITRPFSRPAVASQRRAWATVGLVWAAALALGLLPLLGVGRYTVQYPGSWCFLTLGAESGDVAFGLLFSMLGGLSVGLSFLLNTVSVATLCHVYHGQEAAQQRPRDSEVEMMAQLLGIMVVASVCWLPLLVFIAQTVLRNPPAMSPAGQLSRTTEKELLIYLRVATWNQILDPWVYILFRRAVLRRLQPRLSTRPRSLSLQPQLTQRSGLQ", "experiment": "Total inositol phosphate (IP) accumulation, WT receptor", "conditions": "HEK293 cells, 30 min stimulation, value ±%CV", "protocol": "Receptor expression and functional activity were monitored 48 hours after transfection. […] Heterologous competition studies involved concentrations of the indicated unlabeled ligands extending from 0.1 nM to 30 µM. After 30 min incubation at 25 °C, the reaction was stopped by aspiration of the medium, cells were washed with ice-cold PBS containing 0.2% (w/v) BSA and lysed in 0.5 N NaOH. Radioactivity was measured by liquid scintillation counting. Binding data were analyzed as described in Data and Statistical Analysis. Quantification of the total labeled inositol phosphates (IP) accumulation was performed using a conventional gravity flow column chromatography, as described previously, [19]. Briefly, the day before the assay, cells were labeled with 0,5 µCi of [myo-2-^3H]inositol (17 Ci/mmol) for 18–20 hours in serum-free, inositol-free DMEM containing 20 mM HEPES buffer, pH 7.4, and 0.5% (w/v) Albumax I. The day of the assay, media was replaced with serum-free, inositol-free DMEM containing 25 mM LiCl and cells stimulated for 30 min with the indicated agonists. After removal of the medium, cells were lysed with 10 mM formic acid and lysates were applied onto an anion exchange AG 1X-8 column, formate form, 200–400 mesh. The total IP fraction was then eluted with 2 M ammonium formate/formic acid buffer at pH 5 and radioactivity determined by liquid scintillation counting. Rescue experiments were performed essentially as above, except for a 18 hours incubation step with 1 µΜof […] followed by its removal by washing three times with ice-cold PBS containing 1 mM MgCl2 and 0.1 mM CaCl2 before starting the experiment.\n(§1) All average results are presented as mean±S.E. When indicated, ANOVA followed by post-hoc test for multiple comparisons was performed. Data from radioligand binding were evaluated by a nonlinear, least-squares curve-fitting procedure using GraphPad Prism version 4, implemented with the n-ligand m-binding site model, as described in the LIGAND computer program. Concentration-response curves were evaluated using Prism 4, which use the four parameters logistic model as described in the ALLFIT program. Parameter errors are all expressed in percentage coefficient of variation (%CV) and calculated by simultaneous analysis of at least two different independent experiments performed in duplicate or triplicate. Parameter comparison has been performed on the base of the F test for extra sum of square principle. All curves shown are computer generated."}, "[2]": {"target": "T2, E129V mutant human TP receptor (Homo sapiens, UniProt P21731, E129V)", "T2 construct": "expressed in transfected cells; host or cells: HEK293", "T2 sequence (P21731 1-343 E129V)": "T1 sequence (P21731 1-343) with E129V", "experiment": "BRET2 measurement of Gq protein activation, E129V mutant", "conditions": "HEK293 cells", "protocol": "as §1"}, "WT human TP receptor [3]": {"target": "T1, WT human TP receptor", "experiment": "BRET2 measurement of Gq protein activation, WT receptor", "conditions": "HEK293 cells, value ±%CV", "excerpt": "HEK 293 cells were co-transfected with vectors expressing the GFP^10-Gγ2, Gβ1, Gαq-Rluc8 and WT or E129V mutant of TP receptor to investigate direct G protein activation with an intramolecular bioluminescent resonance energy transfer (BRET^2) strategy. To avoid possible variations in the BRET signaling resulting from fluctuation in the relative expression levels of the energy donor and acceptor, we designed transfection conditions to maintain constant GFP^10 and Rluc8 expression and their ratios in each experimental set. Total fluorescence and luminescence were directly determined in an aliquot of the transfected cells using an Infinite F500 microplate reader (Tecan, Milan, Italy) as previously described. […] 48 hours after transfection, cells were washed once with PBS, detached, and resuspended in PBS+0.1% (w/v) glucose at room temperature. Cells were then distributed (80 µg of proteins per well) into a 96-well microplate (Wallac, Perkin Elmer, Monza, Italy) and incubated in the presence or absence of increasing concentrations of ligands for 2 min before the addition of the luciferase substrate Coelenterazine 400a (5 µM; Biotium, Hayward, CA). BRET signal between Rluc8 and GFP^10 was measured immediately after the addition of the Rluc substrate in the microplate reader. The BRET signal was calculated as the ratio of the light emitted by GFP^10 (510–540 nm) over the light emitted by Rluc8 (370–450 nm). The changes in BRET induced by the ligands were expressed as Òagonist-induced BRETÓ, obtained by subtracting the BRET signal detected in the presence of PBS by the BRET signal detected in the presence of the specific ligand.\nas §1\nThis recorded real time conformational changes between the α and the βγ subunits within the Gq protein, where a decrease of the BRET signal provoked by agonist-induced receptor activation is indicative of a conformational reorganization leading the Gα-Gβγ interface to open, reflects the initial event of Gq protein activation, [23] (Figure 6A)."}}, "note": "Numbering of substitutions follows the chain as printed."}
{"smiles": "CCCCC[C@H](O)/C=C/[C@@H]1[C@@H](C/C=C\\CCCC(=O)O)[C@H]2CO[C@@H]1C2", "note": "(relative stereo) [U46619, [1R-[1α,4α,5β(Z),6α(1E,3S*)]]-7-[6-(3-hydroxy-1-octenyl)-2-oxabicyclo[2.2.1]hept-5-yl]-5-heptenoic acid]", "values": [{"measurement": "Emax, total IP", "setting": "WT human TP receptor [1]; no Gαq overexpression", "value": "12374±8", "unit": "dpm/well"}, {"measurement": "EC50", "setting": "WT human TP receptor [1]", "value": "98.7 ± 70", "unit": "nM"}, {"measurement": "EC50", "setting": "[2]; E129V, Gαq-Rluc8/GFP10-Gγ2/Gβ1, 2 min ligand, value ±%CV", "value": 4.53, "unit": "nM"}, {"measurement": "Activity ratio (EC50 WT over EC50 E129V), BRET", "setting": "[2]; WT vs E129V", "value": 76}, {"measurement": "EC50", "setting": "WT human TP receptor [3]; Gαq-Rluc8/GFP10-Gγ2/Gβ1, 2 min ligand", "value": "345 ± 14", "unit": "nM"}, {"measurement": "Emax, agonist-induced BRET", "setting": "WT human TP receptor [3]", "value": "−0.07±3"}]}
